According to ChEMBL document CHEMBL1221222, “Analysis of the eukaryotic prenylome by isoprenoid affinity tagging” (Nat Chem Biol, 2009):
The source made the active and inactive calls. The rule behind the calls is not given here.

Columns and labels:
COS-7 [1] = assay: Inhibition of GGTase-1 in african green monkey COS7 cells assessed as protein prenylation at >5 uM by Western blot analysis; assay type: cell-based
COS-7 [2] = assay: Inhibition of RabGGTase in african green monkey COS7 cells assessed as Rab prenylation by Western blot analysis; assay type: cell-based
COS-7 [3] = assay: Inhibition of FTase in african green monkey COS7 cells assessed as protein prenylation at 15 uM by Western blot analysis; assay type: cell-based
COS-7 [4] = assay: Inhibition of RabGGTase in african green monkey COS7 cells assessed as Rab prenylation up to 50 uM by Western blot analysis; assay type: cell-based
[5] = tested on: Protein farnesyltransferase subunit beta (Homo sapiens), P49356 [W102T,Y154T,Y205T]; assay: Binding affinity at FTase W102T/Y154T/Y205T mutant assessed as prenylation of dansyl-labeled GCVLS by fluorescence based assay
Sequence of Protein farnesyltransferase subunit beta (Homo sapiens), P49356 [W102T,Y154T,Y205T] (P49356 whole entry W102T/Y154T/Y205T): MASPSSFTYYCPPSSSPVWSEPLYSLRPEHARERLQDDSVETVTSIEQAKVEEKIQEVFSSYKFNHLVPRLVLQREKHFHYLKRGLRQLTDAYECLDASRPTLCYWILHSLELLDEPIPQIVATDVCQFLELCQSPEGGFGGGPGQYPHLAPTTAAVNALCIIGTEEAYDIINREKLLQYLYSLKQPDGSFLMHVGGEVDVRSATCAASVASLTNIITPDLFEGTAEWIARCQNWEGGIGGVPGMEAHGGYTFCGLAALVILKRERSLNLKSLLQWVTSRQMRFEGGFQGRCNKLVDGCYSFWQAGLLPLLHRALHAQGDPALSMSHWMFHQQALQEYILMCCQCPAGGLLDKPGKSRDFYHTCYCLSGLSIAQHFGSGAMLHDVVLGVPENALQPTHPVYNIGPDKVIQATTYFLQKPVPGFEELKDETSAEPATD

[6] = tested on: Geranylgeranyl transferase type-1 subunit beta (Homo sapiens), P53609 [F52Y,F53Y,Y126T]; assay: Binding affinity to GGTase-1 F52Y/F53Y/Y126T mutant assessed as prenylation of dansyl-labeled GCVLL by fluorescence based assay
Sequence of Geranylgeranyl transferase type-1 subunit beta (Homo sapiens), P53609 [F52Y,F53Y,Y126T] (P53609 whole entry F52Y/F53Y/Y126T): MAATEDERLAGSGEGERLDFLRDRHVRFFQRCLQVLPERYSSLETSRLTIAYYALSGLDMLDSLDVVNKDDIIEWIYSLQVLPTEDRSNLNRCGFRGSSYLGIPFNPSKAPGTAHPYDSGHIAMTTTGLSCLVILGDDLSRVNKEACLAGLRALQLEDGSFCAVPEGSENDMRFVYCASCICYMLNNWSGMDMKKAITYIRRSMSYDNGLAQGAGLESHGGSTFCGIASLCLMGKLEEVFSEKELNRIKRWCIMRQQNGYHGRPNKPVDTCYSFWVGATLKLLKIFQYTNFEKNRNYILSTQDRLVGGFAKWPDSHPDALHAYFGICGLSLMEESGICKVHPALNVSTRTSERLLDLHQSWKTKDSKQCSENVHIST

[7] = tested on: Protein farnesyltransferase subunit beta (Homo sapiens), P49356 [W102T,Y154T,Y205T]; assay: Binding affinity to FTase W102T/Y154T/Y205T mutant assessed as prenylation of dansyl-labeled GCVLL by fluorescence based assay
[8] = tested on: Geranylgeranyl transferase type-1 subunit beta (Homo sapiens), P53609 [F52Y,F53Y,Y126T]; assay: Binding affinity to GGTase-1 F52Y/F53Y/Y126T mutant assessed as prenylation of dansyl-labeled GCVLS by fluorescence based assay
COS-7 [9] = assay: Inhibition of FTase in african green monkey COS7 cells assessed as protein prenylation at 100 uM by Western blot analysis; assay type: cell-based
COS-7 [10] = assay: Inhibition of RabGGTase in african green monkey COS7 cells assessed as unprenylated Rab27B level by MudPIT analysis; assay type: cell-based
COS-7 [11] = assay: Inhibition of RabGGTase in african green monkey COS7 cells assessed as unprenylated Rab10 level by MudPIT analysis; assay type: cell-based
COS-7 [12] = assay: Inhibition of RabGGTase in african green monkey COS7 cells assessed as unprenylated Rab05B level by MudPIT analysis; assay type: cell-based
COS-7 [13] = assay: Inhibition of RabGGTase in african green monkey COS7 cells assessed as unprenylated Rab04A level by MudPIT analysis; assay type: cell-based
COS-7 [14] = assay: Inhibition of RabGGTase in african green monkey COS7 cells assessed as unprenylated Rab18 level by MudPIT analysis; assay type: cell-based
COS-7 [15] = assay: Inhibition of RabGGTase in african green monkey COS7 cells assessed as unprenylated Rab31 level by MudPIT analysis; assay type: cell-based
COS-7 [16] = assay: Inhibition of RabGGTase in african green monkey COS7 cells assessed as unprenylated Rab02A level by MudPIT analysis; assay type: cell-based
COS-7 [17] = assay: Inhibition of RabGGTase in african green monkey COS7 cells assessed as unprenylated Rab06A level by MudPIT analysis; assay type: cell-based
COS-7 [18] = assay: Inhibition of RabGGTase in african green monkey COS7 cells assessed as unprenylated Rab39B level by MudPIT analysis; assay type: cell-based
COS-7 [19] = assay: Inhibition of RabGGTase in african green monkey COS7 cells assessed as unprenylated Rab15 level by MudPIT analysis; assay type: cell-based
COS-7 [20] = assay: Inhibition of RabGGTase in african green monkey COS7 cells assessed as unprenylated Rab09B level by MudPIT analysis; assay type: cell-based
COS-7 [21] = assay: Inhibition of RabGGTase in african green monkey COS7 cells assessed as unprenylated Rab03B level by MudPIT analysis; assay type: cell-based
COS-7 [22] = assay: Inhibition of RabGGTase in african green monkey COS7 cells assessed as unprenylated Rab03D level by MudPIT analysis; assay type: cell-based
COS-7 [23] = assay: Inhibition of RabGGTase in african green monkey COS7 cells assessed as unprenylated Rab09A level by MudPIT analysis; assay type: cell-based
COS-7 [24] = assay: Inhibition of RabGGTase in african green monkey COS7 cells assessed as unprenylated Rab13 level by MudPIT analysis; assay type: cell-based
COS-7 [25] = assay: Inhibition of RabGGTase in african green monkey COS7 cells assessed as unprenylated Rab08A level by MudPIT analysis; assay type: cell-based
COS-7 [26] = assay: Inhibition of RabGGTase in african green monkey COS7 cells assessed as unprenylated Rab30 level by MudPIT analysis; assay type: cell-based
COS-7 [27] = assay: Inhibition of RabGGTase in african green monkey COS7 cells assessed as unprenylated Rab43 level by MudPIT analysis; assay type: cell-based
COS-7 [28] = assay: Inhibition of RabGGTase in african green monkey COS7 cells assessed as unprenylated Rab33B level by MudPIT analysis; assay type: cell-based
COS-7 [29] = assay: Inhibition of RabGGTase in african green monkey COS7 cells assessed as unprenylated Rab39A level by MudPIT analysis; assay type: cell-based
COS-7 [30] = assay: Inhibition of RabGGTase in african green monkey COS7 cells assessed as unprenylated Rab06C level by MudPIT analysis; assay type: cell-based
COS-7 [31] = assay: Inhibition of RabGGTase in african green monkey COS7 cells assessed as unprenylated Rab11B level by MudPIT analysis; assay type: cell-based
COS-7 [32] = assay: Inhibition of RabGGTase in african green monkey COS7 cells assessed as unprenylated Rab06B level by MudPIT analysis; assay type: cell-based
COS-7 [33] = assay: Inhibition of RabGGTase in african green monkey COS7 cells assessed as unprenylated Rab34 level by MudPIT analysis; assay type: cell-based
COS-7 [34] = assay: Inhibition of RabGGTase in african green monkey COS7 cells assessed as unprenylated Rab07a level by MudPIT analysis; assay type: cell-based
COS-7 [35] = assay: Inhibition of RabGGTase in african green monkey COS7 cells assessed as unprenylated Rab22A level by MudPIT analysis; assay type: cell-based
COS-7 [36] = assay: Inhibition of RabGGTase in african green monkey COS7 cells assessed as unprenylated Rab35 level by MudPIT analysis; assay type: cell-based
COS-7 [37] = assay: Inhibition of RabGGTase in african green monkey COS7 cells assessed as unprenylated Rab03A level by MudPIT analysis; assay type: cell-based
COS-7 [38] = assay: Inhibition of RabGGTase in african green monkey COS7 cells assessed as unprenylated Rab08B level by MudPIT analysis; assay type: cell-based
COS-7 [39] = assay: Inhibition of RabGGTase in african green monkey COS7 cells assessed as unprenylated Rab05C level by MudPIT analysis; assay type: cell-based
COS-7 [40] = assay: Inhibition of isoprenoid biosynthesis in african green monkey COS7 assessed as unprenylated Rab protein level by Western blot analysis; assay type: functional, cell-based; details: Chlorocebus aethiops
COS-7 [41] = assay: Inhibition of RabGGTase in african green monkey COS7 cells assessed as unprenylated Rab01A level by MudPIT analysis; assay type: cell-based
COS-7 [42] = assay: Inhibition of RabGGTase in african green monkey COS7 cells assessed as unprenylated Rab05A level by MudPIT analysis; assay type: cell-based
COS-7 [43] = assay: Inhibition of RabGGTase in african green monkey COS7 cells assessed as unprenylated Rab01B level by MudPIT analysis; assay type: cell-based
COS-7 [44] = assay: Inhibition of RabGGTase in african green monkey COS7 cells assessed as unprenylated Rab27A level by MudPIT analysis; assay type: cell-based
COS-7 [45] = assay: Inhibition of RabGGTase in african green monkey COS7 cells assessed as unprenylated Rab21 level by MudPIT analysis; assay type: cell-based
COS-7 [46] = assay: Inhibition of RabGGTase in african green monkey COS7 cells assessed as unprenylated Rab41 level by MudPIT analysis; assay type: cell-based
COS-7 [47] = assay: Inhibition of RabGGTase in african green monkey COS7 cells assessed as unprenylated Rab37 level by MudPIT analysis; assay type: cell-based
COS-7 [48] = assay: Inhibition of RabGGTase in african green monkey COS7 cells assessed as unprenylated Rab02B level by MudPIT analysis; assay type: cell-based
COS-7 [49] = assay: Inhibition of RabGGTase in african green monkey COS7 cells assessed as unprenylated Rab14 level by MudPIT analysis; assay type: cell-based
COS-7 [50] = assay: Inhibition of RabGGTase in african green monkey COS7 cells assessed as unprenylated Rab03C level by MudPIT analysis; assay type: cell-based
COS-7 [51] = assay: Inhibition of RabGGTase in african green monkey COS7 cells assessed as unprenylated Rab11A level by MudPIT analysis; assay type: cell-based
COS-7 [52] = assay: Inhibition of RabGGTase in african green monkey COS7 cells assessed as unprenylated Rab04B level by MudPIT analysis; assay type: cell-based

COC(=O)[C@H](CC(C)C)NC(=O)c1ccc(NC[C@@H](N)CS)cc1-c1cccc2ccccc12
inhibition (COS-7 [1]): Active
inhibition (COS-7 [2]): inactive
inhibition (COS-7 [3]): Active

CCCCCCS[C@H]1[C@@H](C(=O)O)[C@H](c2ccc(Br)cc2)N(S(=O)(=O)c2ccc(C)cc2)[C@@H]1CCCCCC
inhibition (COS-7 [4]): inactive

CCC[C@@H]1[C@@H](Sc2ccc(OC)cc2)[C@@H](C(=O)O)[C@H](c2ccc(Br)cc2)N1S(=O)(=O)c1ccc(C)cc1
inhibition (COS-7 [4]): inactive

CCCCCCS[C@H]1[C@@H](C(=O)O)[C@H](c2ccc(Br)cc2)N(S(=O)(=O)c2ccc(C)cc2)[C@@H]1CCC
inhibition (COS-7 [4]): inactive

CC(C)=CCC/C(C)=C/CC/C(C)=C/CC/C(C)=C/COP(=O)(O)OP(=O)(O)O
Activity [5]: inactive
Activity [6]: inactive
Activity [7]: inactive
Activity [8]: inactive

CSCC[C@H](NC(=O)[C@H](Cc1ccccc1)NC[C@@H](NC[C@@H](N)CS)C(C)C)C(=O)O
inhibition (COS-7 [9]): inactive

CC[C@H](C)C(=O)O[C@H]1CCC=C2C=C[C@H](C)[C@H](CC[C@@H]3C[C@@H](O)CC(=O)O3)[C@H]21
Activity (COS-7 [10]): 0.1 pmol
Activity (COS-7 [11]): 1 pmol
Activity (COS-7 [12]): 1.1 pmol
Activity (COS-7 [13]): 0.2 pmol
Activity (COS-7 [14]): 0.7 pmol
Activity (COS-7 [15]): 0.3 pmol
Activity (COS-7 [16]): 1.2 pmol
Activity (COS-7 [17]): 0.8 pmol
Activity (COS-7 [18]): 0.2 pmol
Activity (COS-7 [19]): 0.1 pmol
Activity (COS-7 [20]): 0.3 pmol
Activity (COS-7 [21]): 0.4 pmol
Activity (COS-7 [22]): 1.1 pmol
Activity (COS-7 [23]): 0.8 pmol
Activity (COS-7 [24]): 0.4 pmol
Activity (COS-7 [25]): 0.6 pmol
Activity (COS-7 [26]): 0.2 pmol
Activity (COS-7 [27]): 0.2 pmol
Activity (COS-7 [28]): 0.2 pmol
Activity (COS-7 [29]): 0.2 pmol
Activity (COS-7 [30]): 0.2 pmol
Activity (COS-7 [31]): 1.5 pmol
Activity (COS-7 [32]): 0.6 pmol
Activity (COS-7 [33]): 0.1 pmol
Activity (COS-7 [34]): 1.7 pmol
Activity (COS-7 [35]): 0.8 pmol
Activity (COS-7 [36]): 0.6 pmol
Activity (COS-7 [37]): 0.7 pmol
Activity (COS-7 [38]): 0.4 pmol
Activity (COS-7 [39]): 1.6 pmol
inhibition (COS-7 [40]): Active
Activity (COS-7 [41]): 1.7 pmol
Activity (COS-7 [42]): 1.3 pmol
Activity (COS-7 [43]): 1.8 pmol
Activity (COS-7 [44]): 0.1 pmol
Activity (COS-7 [45]): 0.6 pmol
Activity (COS-7 [46]): 0.2 pmol
Activity (COS-7 [47]): 0.2 pmol
Activity (COS-7 [48]): 0.5 pmol
Activity (COS-7 [49]): 1.5 pmol
Activity (COS-7 [50]): 0.4 pmol
Activity (COS-7 [51]): 1.2 pmol
Activity (COS-7 [52]): 0.2 pmol
